Laboratory results reported in PubChem BioAssay (NCI).
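Protocol summary: plate cells (96-well), add compound at 5 concentrations, incubate 48 h, interpolate endpoints linearly. Definition used: TGI = concentration required for complete inhibition of growth.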

Legend:
Test in all cases: NCI anticancer screen, dose series, 48 h
[1] = tested on: CCRF-CEM leukemia
[2] = tested on: MCF7 breast
[3] = tested on: NCI-H226 lung
[4] = tested on: SNB-75 CNS
[5] = tested on: NCI/ADR-RES ovarian
[6] = tested on: SK-MEL-2 melanoma
[7] = tested on: 786-0 renal
[8] = tested on: SK-MEL-5 melanoma
[9] = tested on: OVCAR-5 ovarian
[10] = tested on: MDA-MB-435
[11] = tested on: SK-OV-3 ovarian

Structure (SMILES)	TGI [1] [µM]	TGI [2] [µM]	TGI [3] [µM]	TGI [4] [µM]	TGI [5] [µM]	TGI [6] [µM]	TGI [7] [µM]	TGI [8] [µM]	TGI [9] [µM]	TGI [10] [µM]	TGI [11] [µM]
CCCCCC(=O)OC[n+]1ccc(-c2c(COC(=O)NC(C)C)c(COC(=O)NC(C)C)c3n2CCC3)cc1	> 100	> 100	> 100	> 100	> 100	> 100	> 100	> 100	> 100	> 100	> 100
FC1(F)SC2CCCCCCCCCCC2C1(F)F (centres undefined)	> 100	44.2	> 100	> 100	> 100	39.3	> 100	> 100	> 100	> 100	> 100
COc1ccc(-c2c3c(n(C4OC(COC(C)=O)C(OC(C)=O)C(OC(C)=O)C4OC(C)=O)c(=S)c2C#N)CCCC3)cc1 (centres undefined)	> 100	> 100	> 100	94	> 100	72.5	> 100	> 100	> 100	> 100	> 100
Cc1nc2c(ccc3[nH]c4ccccc4c32)s1	> 100	> 100	98.7	> 100	> 100	54.7	> 100	29.6	> 100	64.7	> 100
COc1ccc(/C=C2\NC(=S)N(CN3CCOCC3)C2=O)cc1	> 100	> 100	> 100	> 100	> 100	> 100	> 100	> 100	> 100	> 100	> 100
CCOC(=O)C1=CN(Cc2ccccc2)C2ON=C(c3ccc(Cl)cc3)C2C1 (centres undefined)	> 100	> 64.6	> 74.3	> 72.5	> 72.3	38.6	> 69.5	> 65	> 68.7	> 79.5	> 85.9
COc1ccc(-c2nc3ccccc3c(=O)[nH]2)cc1OC	> 100	> 100	55.8	55.6	> 100	> 100	> 100	> 100	> 100	> 100	> 100
COC(=O)C1=C(C(=O)OC)C2CCC1CC2=O (centres undefined)	> 100	> 100	> 100	> 100	> 100	> 100	> 100	> 100	> 100	> 100	> 100
O=C(Nc1ccccn1)c1cc2c(cc1Cl)Sc1nccn1S2(=O)=O	95.9	> 100	57.3	> 100	85.6	48.8	> 100	67.6	> 100	> 100	> 100
O=C1CN2CCN(CC2)CC(=O)Nc2ccc(cc2)S(=O)(=O)c2ccc(cc2)NC(=O)CN2CCN(CC2)CC(=O)Nc2ccc(cc2)S(=O)(=O)c2ccc(cc2)N1	1.81	> 100	> 100	> 100	> 87.3	> 92.3	> 100	> 100	67.7	> 89.7	> 100
Nc1nc(=O)n(C2CC(O)C(CO)O2)c2nc(-c3ccc(-c4ccccc4)cc3)cnc12 (centres undefined)	> 100	54.1	64.9	66.8	> 100	> 100	> 100	> 100	> 100	> 100	> 100
COc1ccc(/C=C/C(=O)N[C@@H]2C(=O)N3[C@@H]2SC(C)(C)[C@@H]3C(=O)O)cc1OC	> 100	> 100	> 100	> 100	> 100	> 100	> 100	> 100	> 100	> 100	> 100
COc1cc2oc(=O)cc(C)c2c(OC)c1OC	> 100	> 100	> 100	> 100	> 100	> 100	> 100	> 100	> 100	> 100	> 100
O=c1oc2ccc([N+](=O)[O-])cc2cc1-c1csc(-c2ccccc2)n1	> 100	> 100	> 100	> 100	> 100	> 100	> 100	> 100	> 100	> 100	> 100
CN(C)C=Nc1cccc2c1NSN2	> 100	> 100	> 100	> 100	> 100	> 100	> 100	> 100	> 100	> 100	> 100
CCN(CC)CCCNc1c2cc(OC)ccc2nc2cccc([N+](=O)[O-])c12	0.582	0.22	0.51	0.354	1.51	0.32	0.464	0.238	0.432	0.229	0.789
CC(=O)Nc1ccc2cc3c(nc2n1)c1cccnc1n3S(=O)(=O)c1ccccc1	> 100	> 100	> 100	> 100	> 100	> 100	> 100	> 100	> 100	> 100	> 100
CCOc1ccnc2c(OC)c(C)c3nc4ccccc4nc3c12	> 100	> 100	> 100	> 100	> 100	> 100	> 100	> 100	> 100	> 100	> 100
Oc1ccccc1/C=N/N1C(=S)N(c2ccccc2)C(=Nc2ccccc2)C1=Nc1ccccc1	> 62.9	> 100	26.4	11.4	41	42.9	14.1	40.9	> 52.4	> 60	30.7
